The values that follow come from patent US6652890B2, “Tea catechins as cancer specific proliferation inhibitors” (Purdue Research Foundation, priority 1999, dated 2003).

For experiment [1], the system named is 4T1 metastatic mouse mammary cancer cells. As to the kind of experiment: Killing of 4T1 metastatic mouse mammary cancer cells in culture. The experiment is classed as cell-based. The settings on record: EGCg 10^−7 M, EC 10^−4 M, alone or combined.
Experiment [2] addresses T1, tNOX activity of intact 4T1 mouse mammary cells (Mus musculus, UniProt Q8R0Z2).
T1 construct: endogenous in cells; host or cells: 4T1 mouse mammary carcinoma cells (intact)
T1 sequence (Q8R0Z2 1-598): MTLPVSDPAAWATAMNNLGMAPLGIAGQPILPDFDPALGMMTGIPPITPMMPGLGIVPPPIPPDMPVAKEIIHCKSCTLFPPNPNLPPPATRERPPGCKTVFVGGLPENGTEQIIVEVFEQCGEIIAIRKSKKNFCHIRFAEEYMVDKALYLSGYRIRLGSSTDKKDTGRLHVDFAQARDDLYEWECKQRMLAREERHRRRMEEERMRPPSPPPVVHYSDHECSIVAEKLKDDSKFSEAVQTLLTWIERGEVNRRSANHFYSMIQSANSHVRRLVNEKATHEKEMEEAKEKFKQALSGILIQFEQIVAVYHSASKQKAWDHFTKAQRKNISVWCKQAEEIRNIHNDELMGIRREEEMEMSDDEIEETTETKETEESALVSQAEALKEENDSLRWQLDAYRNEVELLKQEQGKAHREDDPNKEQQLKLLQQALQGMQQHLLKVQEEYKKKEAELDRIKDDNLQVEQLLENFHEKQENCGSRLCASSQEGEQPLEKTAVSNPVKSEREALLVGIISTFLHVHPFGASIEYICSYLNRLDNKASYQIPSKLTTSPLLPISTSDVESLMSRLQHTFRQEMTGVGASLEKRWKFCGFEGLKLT
As to the kind of experiment: Inhibition of tNOX (NADH oxidase) activity of intact 4T1 cells. It is filed as cell-based. As to conditions: for Inhibition of residual tNOX remaining in the presence of EGCg, EC>90: estimated. How it is done:
A mouse mammary tumor subpopulation line 4T1 arising from a BALB/cf C3H mouse was grown in DME-10, Dulbecco's modified Eagle's medium supplemented with 5% fetal calf serum, 5% newborn calf serum, 1 mM mixed non-essential amino acids, 2 mM L-glutamine, penicillin (100 units/ml), and streptomycin (100 μg/ml) (Miller et al., 1987, Brit. J. Can. 56:561-569 and Miller et al., 1990, Invasion Metastasis 10:101-112).
NADH oxidase activity was determined as the disappearance of NADH measured at 340 nm in a reaction mixture containing 25 mM Tris-Mes buffer (pH 7.2), 1 mM KCN, and 150 μM NADH at 37° C. Activity was measured using a Hitachi U3210 spectrophotometer with stirring and continuous recording over two intervals of 5 min each. A millimolar extinction coefficient of 6.22 was used to determine specific activity.
NADH oxidase activity was determined as the disappearance of NADH measured at 340 nm in a reaction mixture containing 25 mM Tris-Mes buffer (pH 7.2), 1 mM KCN, and 150 μM NADH at 37° C. Activity was measured at 340 nm with reference at 430 nm using an SLM Aminco DW-2000 spectrophotometer (Milton Roy, Rochester, N.Y.) in the dual beam mode of operation with stirring and continuous recording over two intervals of 5 min each. A millimolar extinction coefficient of 6.22 was used to determine specific activity.

Another experiment has as its system 4T1 mouse mammary cancer. The experiment is described as follows: Preliminary animal study, Balb/c mice with 4T1 mouse mammary cancer. It is filed as in vivo. The settings on record: treated for 5 days, 100 μl/day; glaucarubolone 1 mg, EGCg + EC 0.2 + 1.2 mg per animal.
The mark [3] stands for this setting: EGCg given as 0.1 mM (title), 10^−6 M (head), 10^−7 M.
Setting [4] is: Inhibition of residual tNOX remaining in the presence of EGCg, EC50, estimated, EGCg given as 0.1 mM (title), 10^−6 M (head), 10^−7 M.

Entries after “also recorded” stand apart in the source; their conditions may differ. Where two headings read alike, the source gives them in different places.

Consider `Oc1cc(O)c2c(c1)O[C@H](c1ccc(O)c(O)c1)[C@H](O)C2` [EC, (−) - epicatechin], for which the “Increase in cell number cm^−2 over 72 h · 10^2” value in experiment [1] was found to be 560 cm^−2 · 10^2. The “EC50 for tNOX inhibition by (−)-epicatechin” value in experiment [2] (EGCg concentration 0 M, EGCg alone) was “No effect”; in experiment [2] (EGCg concentration 0 M, supplied as Tegreen™) it was “No effect”; in experiment [2] (EGCg concentration 10^−7 M, supplied as Tegreen™), “No effect”; in experiment [2] (EGCg concentration 10^−8 M, EGCg alone) it was “No effect”; in experiment [2] (EGCg concentration 10^−8 M, supplied as Tegreen™), “No effect”. Further, the EC50 (in general, the concentration at which the effect is half-maximal) turned out to be 500 ± 400 nM in experiment [2] (EGCg concentration 10^−4 M, EGCg alone, read-out: EC50 for tNOX inhibition by (−)-epicatechin); 300 ± 200 nM in experiment [2] (EGCg concentration 10^−4 M, supplied as Tegreen™, read-out: EC50 for tNOX inhibition by (−)-epicatechin); 700 ± 300 nM in experiment [2] (EGCg concentration 10^−5 M, EGCg alone, read-out: EC50 for tNOX inhibition by (−)-epicatechin); 150 ± 50 nM in experiment [2] (EGCg concentration 10^−6 M, EGCg alone, read-out: EC50 for tNOX inhibition by (−)-epicatechin); 500 ± 400 nM in experiment [2] (EGCg concentration 10^−6 M, supplied as Tegreen™, read-out: EC50 for tNOX inhibition by (−)-epicatechin); 200 ± 100 nM in experiment [2] (EGCg concentration 10^−7 M, EGCg alone, read-out: EC50 for tNOX inhibition by (−)-epicatechin). Moreover, the EC50 in experiment [2] (in the presence of 10^−7 M EGCg, read-out: EC50 of EC) was approximately 200 nM.
Consider `Oc1cc(O)c2c(c1)OC(c1ccc(O)c(O)c1)C(O)C2` (racemic) [C, (±) - catechin], for which the “Effect on NOX activity” value was “largely without effect” in experiment [2] (in the presence of 10^−7 M EGCg, listed as Catechin) and “little affected” in experiment [2] (in the presence of 10^−7 M EGCg, listed as ±catechin).
For the compound `O=C(O[C@@H]1Cc2c(O)cc(O)cc2O[C@H]1c1cc(O)c(O)c(O)c1)c1cc(O)c(O)c(O)c1` [GCG, gallocatechin gallate], the “Inhibition of residual tNOX remaining in the presence of EGCg, EC>90” value (shortened to “Inhibition of residual tNOX remaining”) in experiment [2] (setting [3]) was “Not reached due”. Moreover, the “Effect on NOX activity” value in experiment [2] (in the presence of 10^−7 M EGCg) is recorded as “less effective; also recorded: less affected”.
On to `Oc1cc(O)c2c(c1)O[C@H](c1cc(O)c(O)c(O)c1)[C@H](O)C2` [EGC, (−) - epigallocatechin], for which the EC50 in experiment [2] (setting [4]) was 1000 nM. The “Inhibition of residual tNOX remaining” value in experiment [2] (setting [3]) was 10^−5 M.
Turning to `CC1=CC(=O)[C@@H](O)[C@]2(C)[C@H]3[C@@]4(O)OC[C@]35[C@H]([C@@H](C)[C@H]4O)[C@@H](O)C(=O)O[C@@H]5C[C@@H]12` [Glaucarubolone, glaucarubolone], the “Tumor wt” value in the experiment with 4T1 mouse mammary cancer is on record as 1.5 ± 0.1 g.
Take `O=C(O[C@@H]1Cc2c(O)cc(O)cc2O[C@@H]1c1ccc(O)c(O)c1)c1cc(O)c(O)c(O)c1` [ECG, (−) - epicatechin gallate]: the EC50 in experiment [2] (setting [4]) is 500 nM. For the same compound, the “Inhibition of residual tNOX remaining” value in experiment [2] (setting [3]) is given as 10^−6 M.
